Test results: publication PMC6764161 (ACS Central Science, 2019)

Legend:
[1] = target: T1, soluble epoxide hydrolase (sEH) (Rattus norvegicus, UniProt P80299); experiment: In vivo displacement assay in rat; details: TCU 0.1 mg/kg, second compound 3 mg/kg, oral gavage
T1 sequence (P80299 1-554): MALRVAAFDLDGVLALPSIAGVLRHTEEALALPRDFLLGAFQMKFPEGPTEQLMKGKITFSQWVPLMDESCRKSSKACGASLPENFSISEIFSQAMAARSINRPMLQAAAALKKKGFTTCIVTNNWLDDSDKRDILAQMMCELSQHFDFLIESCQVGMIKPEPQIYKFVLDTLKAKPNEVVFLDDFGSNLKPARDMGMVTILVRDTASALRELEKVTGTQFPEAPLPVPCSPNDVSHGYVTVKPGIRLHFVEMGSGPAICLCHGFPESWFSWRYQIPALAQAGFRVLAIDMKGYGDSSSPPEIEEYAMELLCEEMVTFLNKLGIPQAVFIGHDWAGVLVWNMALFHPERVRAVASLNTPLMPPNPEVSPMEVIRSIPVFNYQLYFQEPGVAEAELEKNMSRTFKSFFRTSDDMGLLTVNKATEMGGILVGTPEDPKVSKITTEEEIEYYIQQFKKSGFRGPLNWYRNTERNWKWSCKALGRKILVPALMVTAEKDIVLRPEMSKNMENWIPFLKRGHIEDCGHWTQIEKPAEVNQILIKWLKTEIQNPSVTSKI

rat sEH = experiment: IC50 determination for sEH inhibitors; assay type: biochemical; details: potency ratio on rat sEH, Table S1
[2] = patients, cited from earlier work

Row | Compound | displacement of sEH-bound TCU by second compound at 168 h [1] | fold less potent than TIPU (rat sEH) | time until which effect is maintained ([2]; beyond 24 h) | time within which majority is cleared from dosing [2]
1 | CC[C@H](C)C(=O)N1CCC(NC(=O)Nc2c(F)cccc2F)CC1 [DFPU, (S)-1-(2,6-difluorophenyl)-3-(1-(2-methylbutanoyl)piperidin-4-yl)urea] | could not be displaced | ~16 666 fold |  | 
2 | COC(=O)[C@H](c1ccccc1Cl)N1CCc2sccc2C1 [clopidogrel] |  |  | 7 days | ≤ 6 h
